Experimental data as given in patent US20260209219A1, “SUBSTITUTED TETRAHYDROPYRROLO-PYRIDINONE COMPOUNDS AND THEIR USE IN TREATING MEDICAL CONDITIONS” (Karuna Therapeutics, Inc., priority 2022, published 2026).

Key:
[1] = target: T1, rM4 receptors (Rattus norvegicus, UniProt P08485); assay: Rat M4 PAM pERK assay; format: cell-based; details: CHO cells expressing rM4; with EC20 of acetylcholine (10 nM final)
T1 construct: expressed in transfected cells; host or cells: CHO cells
T1 sequence (P08485 1-478): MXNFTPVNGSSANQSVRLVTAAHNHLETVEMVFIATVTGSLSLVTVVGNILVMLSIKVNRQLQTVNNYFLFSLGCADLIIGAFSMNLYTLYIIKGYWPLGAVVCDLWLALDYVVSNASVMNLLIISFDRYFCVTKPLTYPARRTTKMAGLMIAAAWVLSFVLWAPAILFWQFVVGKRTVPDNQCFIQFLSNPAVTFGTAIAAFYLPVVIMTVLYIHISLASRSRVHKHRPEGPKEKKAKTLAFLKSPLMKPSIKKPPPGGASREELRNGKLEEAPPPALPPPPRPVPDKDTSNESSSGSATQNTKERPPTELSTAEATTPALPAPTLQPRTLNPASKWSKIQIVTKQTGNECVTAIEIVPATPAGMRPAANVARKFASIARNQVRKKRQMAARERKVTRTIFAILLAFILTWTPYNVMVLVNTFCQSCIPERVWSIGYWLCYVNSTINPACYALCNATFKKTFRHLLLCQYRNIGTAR
Method: (§1) Chinese hamster ovary (CHO) cells expressing either hM4 or rM4 receptors were frozen in assay ready vials (5×10^6 cells/vial) after bulking-up in culture. The day before an assay, vial(s) were thawed and cells seeded in 384 well white proxiplates at 1000/well for hM4 cells and at 2000/well for rM4 cells, in 10 μL of growth media (Hams/F12 with glutamax and 10% FCS) and incubated overnight at 37° C./5% CO2.
(§2) On the following morning, the growth media was removed by ‘flicking out’ over a bin, patting the inverted plate onto tissue, and then replacing with 10 μL of wash media (Hams/F12 with glutamax and 8 mM HEPES, NB: serum free). Then, the wash media was removed in the same way and replaced with 8 μL/well of the serum free media. Plates were then re-incubated for a further 4 hours at 37° C./5% CO2.
(§3) Compounds for testing were solubilized to 10 mM in DMSO and compound addition plates, consisting of ten-point concentration response curves (CRC) in duplicate points (10 μM top concentration, ½ log dilution series), were prepared by acoustic dispensing and the compound management group.
(§4) After the 4-hour incubation in serum free media, a 4 μL aliquot of the 3× compound solution containing an EC20 of acetylcholine (10 nM final concentration) was added to the cell plate using a 384 well plate to plate transfer. Then, the plate lid was replaced, and the cells incubated for 5 mins at 37° C./5% CO2. Following this final incubation, all cellular processes were stopped by the addition of 4 μL/well of lysis and blocking buffer and plates were incubated for 30 minutes at RT on an orbital shaker (gentle setting). Then, a final addition of 4 μL/well of antibody detection mix, containing both the Europium-Cryptate (donor) and d2 (acceptor) tagged detection components, was added followed by a further 2-hour incubation at RT, and then the plate was read using a TR-FRET (time resolved fluorescence resonance energy transfer) based protocol.

[2] = target: T2, human M4 receptor (Homo sapiens, UniProt P08173); assay: M4 GTPγS PAM assay; format: biochemical; details: membranes of CHO-K1 cells stably expressing human M4; EC20 acetylcholine 40 nM
T2 construct: expressed in transfected cells; host or cells: CHO-K1 cells (membrane preparation)
T2 sequence (P08173 1-479): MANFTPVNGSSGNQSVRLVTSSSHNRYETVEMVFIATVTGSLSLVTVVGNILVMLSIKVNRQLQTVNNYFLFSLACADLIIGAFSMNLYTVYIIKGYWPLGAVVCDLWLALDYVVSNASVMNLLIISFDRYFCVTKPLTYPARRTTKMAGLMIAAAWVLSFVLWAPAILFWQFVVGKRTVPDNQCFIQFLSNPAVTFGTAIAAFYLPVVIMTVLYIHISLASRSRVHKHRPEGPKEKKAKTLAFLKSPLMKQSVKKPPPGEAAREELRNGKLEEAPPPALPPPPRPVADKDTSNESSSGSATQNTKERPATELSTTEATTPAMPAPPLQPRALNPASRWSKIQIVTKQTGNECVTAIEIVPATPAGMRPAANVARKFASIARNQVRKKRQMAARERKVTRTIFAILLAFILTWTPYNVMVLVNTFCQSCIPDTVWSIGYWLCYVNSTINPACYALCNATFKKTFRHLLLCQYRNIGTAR
Method: The M4 GTPγS PAM method was used. Membranes were prepared for GTPgS binding assays from CHO-K1 cells stably expressing human M4 receptor. Briefly, cells were grown in 5-layer cell culture flasks. Cells were washed with 50 mL of PBS and then dissociated with 0.05% trypsin. Dissociated cells were then collected by centrifugation at 650×g for 8 minutes at 4° C. Pellets were washed again in PBS by centrifugation and resuspended in 30 mL of 20 mM HEPES, 10 mM EDTA, pH 7.4. After sitting on ice for 30 min, membranes were collected by centrifugation at 50000×g for 15′ at 4° C., resuspended in 30 mL of 20 mM HEPES, 0.1 mM EDTA, pH 7.4 and collected again by centrifugation. Pellets were then washed twice by centrifugation in 30 mL of 20 mM HEPES, pH 7.4, and stored at −80° C. until the day of the assay. On the day of the assay, pellets were thawed on ice and resuspended in 1 mL of 20 mM HEPES, pH 7.4, 10 mM MgCl2, 100 mM NaCl using dounce homogenization. Membrane protein concentration is determined by BCA protein assay (Promega, Madison, WI) according to Promega guidelines.
On the day of the assay, serial dilutions of test PAM compounds were brought up in assay buffer (20 mM HEPES, 10 mM MgCl2, 100 mM NaCl) at 4× final assay concentration. […] of membrane homogenates (containing […] of membrane protein) were prepared in assay buffer supplemented with GDP at 4× final assay concentration (final assay concentration of GDP is 5 μM for M2 and 0.1 μM for M4) and dispensed into 96 well polypropylene, U-bottom Greiner plates. […] of vehicle or test PAM compound at 4× of final assay concentration diluted in the assay buffer were added to membrane and plates are incubated for 10-15 minutes at room temperature with gentle shaking. Then, […] of EC20 acetylcholine in assay buffer at 4× final assay concentration was added to assay plates (EC20 final assay concentrations was 40 nM for human M4).
Plates were then incubated, with shaking, for an additional 10-15 minutes. 25 mL of 0.4 nM ^35S-GTP (Perkin Elmer, Waltham, MA) in assay buffer was added to assay mixtures. The binding reaction is left on the shaker for 1 hour at room temperature. Membranes in assay reactions were then transferred to GF/C filter plates (Unifilter, Perkin Elmer) and washed three times using a FilterMate Harvester (Perkin Elmer) with cold assay buffer containing no GDP. Filter plates were then dried at 40° C. overnight followed by the addition of […] of Beta Plate Scintillation liquid. Plates are top and bottom sealed before being read on TopCount scintillation counter (Perkin Elmer, Waltham, MA).

[3] = target: T3, hM4 receptors (Homo sapiens, UniProt P08173); assay: Human M4 PAM pERK assay; format: cell-based; details: CHO cells expressing hM4; with EC20 of acetylcholine (10 nM final)
T3 construct: expressed in transfected cells; host or cells: CHO cells
T3 sequence (P08173 1-479): T2 sequence (P08173 1-479)
Method: as §1, §2, §3, §4

SMILES | EC50 [1] [nM] | EC50 [2] [nM] | EC50 [3] [nM]
Cc1c2c(n(C)c(=O)c1Cl)CN(C(=O)CC1CC1c1ccc(C(F)(F)F)cc1)C2 (single isomer, unassigned) [Compound I-32] | 500 to 2000 | 100 to 500 | 500 to 2000
COc1c2c(n(C)c(=O)c1C)CN(C(=O)CC1CC1c1ccc(C(F)(F)F)cc1)C2 (single isomer, unassigned) [Compound I-29, 4-Methoxy-1,3-dimethyl-6-([trans-2-(2-(4-(trifluoromethyl)phenyl)cyclopropyl)]acetyl)-1,5,6,7-tetrahydro-2H-pyrrolo[3,4-b]pyridin-2-one] | 100 to 500 | < 100 | 100 to 500
Cc1cc(=O)n(C)c2c1CN(C(=O)CC1CC1c1ccnc(C(F)(F)F)c1)C2 (single isomer, unassigned) [Compound I-1, 1,4-Dimethyl-6-[trans-(2-(2-(2-(trifluoromethyl)pyridin-4-yl)cyclopropyl)]acetyl)-1,5,6,7-tetrahydro-2H-pyrrolo[3,4-b]pyridin-2-one] | – | – | > 2000
Cc1c2c(n(C)c(=O)c1F)CN(C(=O)CC1CC1c1cc(F)cc(F)c1)C2 (single isomer, unassigned) [Compound I-27] | < 100 | < 100 | < 100
Cc1cc(=O)n(C)c2c1CN(C(=O)CC1CC1c1cccc(C3COC3)c1)C2 (centres unmarked) [Compound I-12] | 500 to 2000 | > 2000 | 100 to 500
Cc1cc(=O)n(C)c2c1CN(C(=O)CC1CC1c1ccc(C(F)(F)F)nc1)C2 (centres unmarked) [Compound I-3] | 500 to 2000 | 500 to 2000 | 500 to 2000
Cc1cc(=O)n(C)c2c1CN(C(=O)CC1CC1c1ccc(C3COC3)cc1)C2 (centres unmarked) [Compound I-15] | 500 to 2000 | – | 100 to 500
Cc1c2c(n(C)c(=O)c1Cl)CN(C(=O)CC1CC1c1ccc(C(F)(F)F)cc1)C2 (single isomer, unassigned) [Compound I-33] | < 100 | < 100 | < 100
Cc1cc(=O)n(C)c2c1CN(C(=O)CC1CC1c1ccc(C3COC3)cc1)C2 (single isomer, unassigned) [Compound I-16] | > 2000 | – | > 2000
Cc1c2c(n(C)c(=O)c1C)CN(C(=O)CC1CC1c1ccc(C(F)(F)F)cc1)C2 (single isomer, unassigned) [Compound I-19] | > 2000 | – | > 2000
Cc1cc(=O)n(C)c2c1CN(C(=O)CC1CC1c1ccc(S(=O)(=O)C(F)(F)F)cc1)C2 (single isomer, unassigned) [Compound I-9] | 100 to 500 | – | 100 to 500
COCCc1ccc(C2CC2CC(=O)N2Cc3c(C)cc(=O)n(C)c3C2)cc1 (centres unmarked) [Compound I-11] | 500 to 2000 | – | 100 to 500

More lines, now with the values ahead:

EC50 [1] [nM] | EC50 [2] [nM] | EC50 [3] [nM] | SMILES
> 2000 | 100 to 500 | 500 to 2000 | Cc1c2c(n(C)c(=O)c1F)CN(C(=O)CC1CC1c1ccc(C(F)(F)F)cc1)C2 (single isomer, unassigned) [Compound I-25, 3-Fluoro-1,4-dimethyl-6-([trans-2-(2-(4-(trifluoromethyl)phenyl)cyclopropyl)]acetyl)-1,5,6,7-tetrahydro-2/I-pyrrolo[3,4-b]pyridin-2-one]
> 2000 | > 2000 | > 2000 | Cc1cc(=O)n(C)c2c1CN(C(=O)CC1CC1c1ccc(C(F)(F)F)nc1)C2 (single isomer, unassigned) [Compound I-4]
100 to 500 | < 100 | < 100 | Cc1c2c(n(C)c(=O)c1C)CN(C(=O)CC1CC1c1cc(F)cc(F)c1)C2 (centres unmarked) [Compound I-21]
100 to 500 | – | 100 to 500 | Cc1c2c(n(C)c(=O)c1C)CN(C(=O)CC1CC1c1ccc(C(F)(F)F)cc1)C2 (single isomer, unassigned) [Compound I-20]
500 to 2000 | – | < 100 | Cc1cc(=O)n(C)c2c1CN(C(=O)CC1CC1c1ccnc(C(F)(F)F)c1)C2 (single isomer, unassigned) [Compound I-2]
> 2000 | > 2000 | > 2000 | Cc1cc(=O)n(C)c2c1CN(C(=O)CC1CC1c1cccc(C3COC3)c1)C2 (single isomer, unassigned) [Compound I-13]
100 to 500 | 100 to 500 | 100 to 500 | Cc1c2c(n(C)c(=O)c1Cl)CN(C(=O)C[C@@H]1C[C@H]1c1ccc(C(F)(F)F)cc1)C2 (relative stereo) [Compound I-31, 3-Chloro-1,4-dimethyl-6-([trans-2-(2-(4-(trifluoromethyl)phenyl)cyclopropyl)]acetyl)-1,5,6,7-tetrahydro-2H-pyrrolo[3,4-b]pyridin-2-one]
< 100 | – | < 100 | Cc1c2c(n(C)c(=O)c1F)CN(C(=O)CC1CC1c1cc(F)cc(F)c1)C2 (single isomer, unassigned) [Compound I-28]
100 to 500 | – | 100 to 500 | Cc1cc(=O)n(C)c2c1CN(C(=O)CC1CC1c1cccc(C3COC3)c1)C2 (single isomer, unassigned) [Compound I-14]
100 to 500 | – | < 100 | Cc1cc(=O)n(C)c2c1CN(C(=O)CC1CC1c1ccc(C3COC3)cc1)C2 (single isomer, unassigned) [Compound I-17]
> 2000 | – | > 2000 | Cc1cc(=O)n(C)c2c1CN(C(=O)CC1CC1c1ccc(S(=O)(=O)C(F)(F)F)cc1)C2 (single isomer, unassigned) [Compound I-8]
